Experimental data taken from ChEMBL document CHEMBL1126960 (J Med Chem, 1993).

Columns and labels:
D(2) dopamine receptor = D(2) dopamine receptor (Homo sapiens, UniProt P14416); assay: biochemical
Description: Displacement of [3H]spiperone from CHO-K1 cell membranes expressing human dopamine receptor D2

D(3) dopamine receptor = D(3) dopamine receptor (Homo sapiens, UniProt P35462); assay: biochemical
Description: Displacement of [3H]-spiperone from CHO-K1 cell membranes expressing human dopamine 3 receptors

Sigma 2 receptor [1] = assay: Tested for [3H]DTG binding to sigma-2 receptor in NG108-15 cell membranes
Sigma 2 receptor [2] = assay: Tested for [3H]DTG binding to sigma-2 receptor in NG108-15 membrane; format: cell membranes
Rattus norvegicus [3] = organism: Rattus norvegicus; conditions: Striatum
Description: Effect of compound (2 mg/kg ip) on the concentration of DOPAC in rat striatum

Rattus norvegicus [4] = organism: Rattus norvegicus; conditions: Striatum; remark: listed apart in the source
Description: Effect of compound (2 mg/kg ip) on the concentration of DA in rat striatum

Rattus norvegicus [5] = organism: Rattus norvegicus
Description: Effect of compound (2 mg/kg ip) on the concentration of DOPAC/DA in rat mesolimbic region

Rattus norvegicus [6] = organism: Rattus norvegicus; conditions: Striatum; remark: listed apart in the source
Description: Effect of compound (2 mg/kg ip) on the concentration of HVA in rat striatum

Rattus norvegicus [7] = organism: Rattus norvegicus; conditions: Frontal cortex
Description: Effect of compound (2 mg/kg ip) on the concentration of DOPAC in rat frontal cortex

Rattus norvegicus [8] = organism: Rattus norvegicus; remark: listed apart in the source
Description: Effect of compound (2 mg/kg ip) on the concentration of DA in rat mesolimbic region

Rattus norvegicus [9] = organism: Rattus norvegicus; conditions: Frontal cortex; remark: listed apart in the source
Description: Effect of compound (2 mg/kg ip) on the concentration of DA in rat frontal cortex

Rattus norvegicus [10] = organism: Rattus norvegicus; remark: listed apart in the source
Description: Effect of compound (2 mg/kg ip) on the concentration of 5-HT in rat mesolimbic region

Rattus norvegicus [11] = organism: Rattus norvegicus; conditions: Striatum; remark: listed apart in the source
Description: Effect of compound (2 mg/kg ip) on the concentration of 5-HIAA in rat striatum

Rattus norvegicus [12] = organism: Rattus norvegicus; remark: listed apart in the source
Description: Effect of compound (2 mg/kg ip) on the concentration of HVA in rat mesolimbic region

Rattus norvegicus [13] = organism: Rattus norvegicus; conditions: Frontal cortex; remark: listed apart in the source
Description: Effect of compound (2 mg/kg ip) on the concentration of HVA in rat frontal cortex

Rattus norvegicus [14] = organism: Rattus norvegicus; remark: listed apart in the source
Description: Effect of compound (2 mg/kg ip) on the concentration of DOPAC in rat mesolimbic region

Rattus norvegicus [15] = organism: Rattus norvegicus; conditions: Frontal cortex; remark: listed apart in the source
Description: Effect of compound (2 mg/kg ip) on the concentration of 5-HT in rat frontal cortex

Rattus norvegicus [16] = organism: Rattus norvegicus; conditions: Frontal cortex; remark: listed apart in the source
Description: Effect of compound (2 mg/kg ip) on the concentration of DOPAC/DA in rat frontal cortex

Rattus norvegicus [17] = organism: Rattus norvegicus; conditions: Frontal cortex; remark: listed apart in the source
Description: Effect of compound (2 mg/kg ip) on the concentration of 5-HIAA in rat frontal cortex

Rattus norvegicus [18] = organism: Rattus norvegicus; conditions: Striatum; remark: listed apart in the source
Description: Effect of compound (2 mg/kg ip) on the concentration of 5-HT in rat striatum

Rattus norvegicus [19] = organism: Rattus norvegicus; remark: listed apart in the source
Description: Effect of compound (2 mg/kg ip) on the concentration of 5-HIAA in rat mesolimbic region

Rattus norvegicus [20] = organism: Rattus norvegicus; conditions: Striatum; remark: listed apart in the source
Description: Effect of compound (2 mg/kg ip) on the concentration of DOPAC/DA in rat striatum

Rattus norvegicus [21] = organism: Rattus norvegicus; remark: listed apart in the source
Description: Effect of compound (0.2 mg/kg ip) on the concentration of DOPAC/DA in rat mesolimbic region

Rattus norvegicus [22] = organism: Rattus norvegicus; remark: listed apart in the source
Description: Effect of compound (0.2 mg/kg ip) on the concentration of DOPAC in rat mesolimbic region

Rattus norvegicus [23] = organism: Rattus norvegicus; remark: listed apart in the source
Description: Effect of compound (0.2 mg/kg ip) on the concentration of DA in rat mesolimbic region

Rattus norvegicus [24] = organism: Rattus norvegicus; conditions: Striatum; remark: listed apart in the source
Description: Effect of compound (0.2 mg/kg ip) on the concentration of HVA in rat striatum

Rattus norvegicus [25] = organism: Rattus norvegicus; remark: listed apart in the source
Description: Effect of compound on (0.2 mg/kg ip) the concentration of 5-HT in rat mesolimbic region

Rattus norvegicus [26] = organism: Rattus norvegicus; conditions: Striatum; remark: listed apart in the source
Description: Effect of compound (0.2 mg/kg ip) on the concentration of DOPAC in rat striatum

Rattus norvegicus [27] = organism: Rattus norvegicus; conditions: Frontal cortex; remark: listed apart in the source
Description: Effect of compound (0.2 mg/kg ip) on the concentration of HVA in rat frontal cortex

Rattus norvegicus [28] = organism: Rattus norvegicus; conditions: Frontal cortex; remark: listed apart in the source
Description: Effect of compound on (0.2 mg/kg ip) the concentration of 5-HIAA in rat frontal cortex

Rattus norvegicus [29] = organism: Rattus norvegicus; conditions: Striatum; remark: listed apart in the source
Description: Effect of compound (0.2 mg/kg ip) on the concentration of DA in rat striatum

Rattus norvegicus [30] = organism: Rattus norvegicus; conditions: Striatum; remark: listed apart in the source
Description: Effect of compound (0.2 mg/kg ip) on the concentration of 5-HIAA in rat striatum

Rattus norvegicus [31] = organism: Rattus norvegicus; conditions: Frontal cortex; remark: listed apart in the source
Description: Effect of compound on (0.2 mg/kg ip) the concentration of DOPAC/DA in rat frontal cortex

Rattus norvegicus [32] = organism: Rattus norvegicus; remark: listed apart in the source
Description: Effect of compound on (0.2 mg/kg ip) the concentration of 5-HIAA in rat mesolimbic region

Rattus norvegicus [33] = organism: Rattus norvegicus; conditions: Frontal cortex; remark: listed apart in the source
Description: Effect of compound (0.2 mg/kg ip) on the concentration of DOPAC in rat frontal cortex

Rattus norvegicus [34] = organism: Rattus norvegicus; remark: listed apart in the source
Description: Effect of compound (0.2 mg/kg ip) on the concentration of HVA in rat mesolimbic region

Rattus norvegicus [35] = organism: Rattus norvegicus; conditions: Frontal cortex; remark: listed apart in the source
Description: Effect of compound (0.2 mg/kg ip) on the concentration of DA in rat frontal cortex

Rattus norvegicus [36] = organism: Rattus norvegicus; conditions: Striatum; remark: listed apart in the source
Description: Effect of compound (0.2 mg/kg ip) on the concentration of 5-HT in rat striatum

Rattus norvegicus [37] = organism: Rattus norvegicus; conditions: Striatum; remark: listed apart in the source
Description: Effect of compound (0.2 mg/kg ip) on the concentration of DOPAC/DA in rat striatum

Rattus norvegicus [38] = organism: Rattus norvegicus; conditions: Frontal cortex; remark: listed apart in the source
Description: Effect of compound on (0.2 mg/kg ip) the concentration of 5-HT in rat frontal cortex

D(2) dopamine receptor, sequence (P14416 whole entry): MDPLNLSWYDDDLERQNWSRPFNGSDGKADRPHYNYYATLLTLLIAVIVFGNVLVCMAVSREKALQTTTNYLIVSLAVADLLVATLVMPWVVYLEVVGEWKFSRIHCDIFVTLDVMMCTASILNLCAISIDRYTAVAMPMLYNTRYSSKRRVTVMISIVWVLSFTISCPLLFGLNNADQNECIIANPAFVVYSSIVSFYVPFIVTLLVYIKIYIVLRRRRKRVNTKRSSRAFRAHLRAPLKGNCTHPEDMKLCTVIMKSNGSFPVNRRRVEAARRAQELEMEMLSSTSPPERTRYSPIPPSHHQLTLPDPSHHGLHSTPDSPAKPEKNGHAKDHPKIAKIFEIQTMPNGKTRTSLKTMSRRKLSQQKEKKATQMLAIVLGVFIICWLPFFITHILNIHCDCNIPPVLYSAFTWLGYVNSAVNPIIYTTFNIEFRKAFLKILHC
D(3) dopamine receptor, sequence (P35462 whole entry): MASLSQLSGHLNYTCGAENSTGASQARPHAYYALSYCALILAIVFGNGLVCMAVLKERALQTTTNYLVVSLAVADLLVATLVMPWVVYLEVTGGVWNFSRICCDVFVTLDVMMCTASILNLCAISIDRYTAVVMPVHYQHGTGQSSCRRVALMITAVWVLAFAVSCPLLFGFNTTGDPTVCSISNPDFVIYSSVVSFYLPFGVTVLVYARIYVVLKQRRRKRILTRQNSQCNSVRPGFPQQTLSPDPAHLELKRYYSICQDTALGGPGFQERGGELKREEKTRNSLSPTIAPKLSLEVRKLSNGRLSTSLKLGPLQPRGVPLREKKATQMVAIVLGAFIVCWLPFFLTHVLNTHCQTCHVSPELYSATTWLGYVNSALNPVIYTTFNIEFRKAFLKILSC

SMILES: O[C@H](CCCN1CCN(c2ncc(F)cn2)CC1)c1ccc(F)cc1
- Ki (D(2) dopamine receptor): > 5000 nM
- Ki (D(3) dopamine receptor): > 2000 nM
- Ki (Sigma 2 receptor [1]): 1240 nM

SMILES: O[C@H](CCCN1CCN(c2ccccn2)CC1)c1ccc(F)cc1
- Ki (D(2) dopamine receptor): 403 nM
- Ki (D(3) dopamine receptor): 374 nM
- Ki (Sigma 2 receptor [1]): 280 nM

SMILES: O=C(CCCN1CCN(c2ccccn2)CC1)c1ccc(F)cc1 [AZAPERONE]
- Ki (Sigma 2 receptor [1]): 51 nM

SMILES: O[C@@H](CCCN1CCC(O)(c2ccc(Cl)cc2)CC1)c1ccc(F)cc1
- Ki (Sigma 2 receptor [2]): 8.2 nM
- Concentration (ng (g of tissue)-1) (Rattus norvegicus [3]): 2740
- Concentration (ng (g of tissue)-1) (Rattus norvegicus [4]): 5230
- Concentration (ng (g of tissue)-1) (Rattus norvegicus [5]): 0.588
- Concentration (ng (g of tissue)-1) (Rattus norvegicus [6]): 1980
- Concentration (ng (g of tissue)-1) (Rattus norvegicus [7]): 32
- Concentration (ng (g of tissue)-1) (Rattus norvegicus [8]): 2230
- Concentration (ng (g of tissue)-1) (Rattus norvegicus [9]): 19
- Concentration (ng (g of tissue)-1) (Rattus norvegicus [10]): 639
- Ki (D(3) dopamine receptor): 330 nM
- Concentration (ng (g of tissue)-1) (Rattus norvegicus [11]): 437
- Concentration (ng (g of tissue)-1) (Rattus norvegicus [12]): 788
- Concentration (ng (g of tissue)-1) (Rattus norvegicus [13]): 80
- Concentration (ng (g of tissue)-1) (Rattus norvegicus [14]): 1310
- Concentration (ng (g of tissue)-1) (Rattus norvegicus [15]): 165
- Concentration (ng (g of tissue)-1) (Rattus norvegicus [16]): 1.7
- Concentration (ng (g of tissue)-1) (Rattus norvegicus [17]): 156
- Concentration (ng (g of tissue)-1) (Rattus norvegicus [18]): 367
- Concentration (ng (g of tissue)-1) (Rattus norvegicus [19]): 527
- Concentration (ng (g of tissue)-1) (Rattus norvegicus [20]): 0.523

SMILES: O[C@@H](CCCN1CCN(c2ccccn2)CC1)c1ccc(F)cc1
- Ki (D(2) dopamine receptor): 101 nM
- Ki (D(3) dopamine receptor): 125 nM
- Ki (Sigma 2 receptor [1]): 38 nM

SMILES: O=C(CCCN1CCC(O)(c2ccc(Cl)cc2)CC1)c1ccc(F)cc1
- Concentration (ng (g of tissue)-1) (Rattus norvegicus [21]): 0.587
- Concentration (ng (g of tissue)-1) (Rattus norvegicus [22]): 986
- Concentration (ng (g of tissue)-1) (Rattus norvegicus [23]): 1680
- Concentration (ng (g of tissue)-1) (Rattus norvegicus [24]): 2190
- Concentration (ng (g of tissue)-1) (Rattus norvegicus [25]): 657
- Concentration (ng (g of tissue)-1) (Rattus norvegicus [26]): 2870
- Concentration (ng (g of tissue)-1) (Rattus norvegicus [27]): 102
- Concentration (ng (g of tissue)-1) (Rattus norvegicus [28]): 180
- Concentration (ng (g of tissue)-1) (Rattus norvegicus [29]): 5140
- Concentration (ng (g of tissue)-1) (Rattus norvegicus [30]): 552
- Concentration (ng (g of tissue)-1) (Rattus norvegicus [31]): 1.18
- Concentration (ng (g of tissue)-1) (Rattus norvegicus [32]): 648
- Concentration (ng (g of tissue)-1) (Rattus norvegicus [33]): 32
- Concentration (ng (g of tissue)-1) (Rattus norvegicus [34]): 669
- Concentration (ng (g of tissue)-1) (Rattus norvegicus [35]): 27
- Concentration (ng (g of tissue)-1) (Rattus norvegicus [36]): 407
- Concentration (ng (g of tissue)-1) (Rattus norvegicus [37]): 0.558
- Concentration (ng (g of tissue)-1) (Rattus norvegicus [38]): 160

SMILES: O[C@H](CCCN1CCC(O)(c2ccc(Cl)cc2)CC1)c1ccc(F)cc1
- Ki (Sigma 2 receptor [2]): 31 nM
- Concentration (ng (g of tissue)-1) (Rattus norvegicus [3]): 2440
- Concentration (ng (g of tissue)-1) (Rattus norvegicus [4]): 3750
- Concentration (ng (g of tissue)-1) (Rattus norvegicus [5]): 0.616
- Concentration (ng (g of tissue)-1) (Rattus norvegicus [6]): 1780
- Concentration (ng (g of tissue)-1) (Rattus norvegicus [7]): 32
- Concentration (ng (g of tissue)-1) (Rattus norvegicus [8]): 1660
- Concentration (ng (g of tissue)-1) (Rattus norvegicus [9]): 18
- Concentration (ng (g of tissue)-1) (Rattus norvegicus [10]): 627
- Ki (D(3) dopamine receptor): 1300 nM
- Concentration (ng (g of tissue)-1) (Rattus norvegicus [11]): 510
- Concentration (ng (g of tissue)-1) (Rattus norvegicus [12]): 641
- Concentration (ng (g of tissue)-1) (Rattus norvegicus [13]): 98
- Concentration (ng (g of tissue)-1) (Rattus norvegicus [14]): 1020
- Concentration (ng (g of tissue)-1) (Rattus norvegicus [15]): 154
- Concentration (ng (g of tissue)-1) (Rattus norvegicus [16]): 1.81
- Concentration (ng (g of tissue)-1) (Rattus norvegicus [17]): 172
- Concentration (ng (g of tissue)-1) (Rattus norvegicus [18]): 397
- Concentration (ng (g of tissue)-1) (Rattus norvegicus [19]): 492
- Concentration (ng (g of tissue)-1) (Rattus norvegicus [20]): 0.651

SMILES: O[C@@H](CCCN1CCN(c2ncc(F)cn2)CC1)c1ccc(F)cc1 [BMY-14802]
- Ki (D(2) dopamine receptor): 3350 nM
- Ki (D(3) dopamine receptor): > 2000 nM
- Ki (Sigma 2 receptor [1]): 96 nM
